Data taken from ChEMBL document CHEMBL5113471 (Eur J Med Chem, 2022).
The source made the active and inactive calls. The calls are words filed in the database; no cut-off is given here.

What was measured:
[1] = target: Poly [ADP-ribose] polymerase 1 (Homo sapiens, UniProt P09874); test: Inhibition of human recombinant PARP1 in presence of NAD+ by ELISA
[2] = test system: CAPAN-1; test: Antiproliferative activity against BRCA2-deficient human CAPAN-1 cells assessed as inhibition of cell proliferation incubated for 7 days by CellTiter-Glo assay; assay type: functional, cell-based; settings: CAPAN-1, 168 h
[3] = test system: MDA-MB-436; test: Induction of DNA double strand breaks in human MDA-MB-436 cells assessed as increase in Chk1 phosphorylation at Ser345 residue incubated for 48 hrs by western blot analysis; assay type: functional, cell-based; settings: dose 0.1-1 µM
[4] = test system: CAPAN-1; test: Induction of DNA double strand breaks in human CAPAN-1 cells assessed as increase in gamma-H2AX level incubated for 48 hrs by western blot analysis; assay type: functional, cell-based; settings: dose 0.1-1 µM, DDE = dose-dependent effect
[5] = test system: CAPAN-1; test: Induction of apoptosis in human CAPAN-1 cells assessed as late apoptotic cells at 10 uM incubated for 96 hrs by AnnexinV-FITC/PI staining based flow cytometry (reference value: 8.99%); assay type: functional
[6] = Cytotoxicity against human WI-38 cells expressing wild type BRCA1 assessed as inhibition of cell proliferation incubated for 7 days by SRB assay; assay type: toxicity, cell-based
[7] = test system: MDA-MB-436; test: Antiproliferative activity against BRCA1-deficient human MDA-MB-436 cells assessed as inhibition of cell proliferation incubated for 7 days by CCK-8 assay; assay type: functional, cell-based; settings: MDA-MB-436, 168 h
[8] = test system: CAPAN-1; test: Induction of apoptosis in human CAPAN-1 cells assessed as early apoptotic cells at 5 uM incubated for 96 hrs by AnnexinV-FITC/PI staining based flow cytometry (reference value: 5.08%); assay type: functional
[9] = Cytotoxicity against human IMR-90 cells expressing wild type BRCA-1 assessed as inhibition of cell proliferation incubated for 7 days by SRB assay; assay type: toxicity, cell-based
[10] = test system: CAPAN-1; test: Induction of apoptosis in human CAPAN-1 cells assessed as early apoptotic cells at 1 uM incubated for 96 hrs by AnnexinV-FITC/PI staining based flow cytometry (reference value: 5.08%); assay type: functional
[11] = test system: CAPAN-1; test: Induction of DNA double strand breaks in human CAPAN-1 cells assessed as increase in Chk1 phosphorylation at Ser345 residue incubated for 48 hrs by western blot analysis; assay type: functional, cell-based; settings: dose 0.1-1 µM
[12] = Antiproliferative activity against human UWB1289 cells with restoration of BRCA1 expression assessed as inhibition of cell proliferation incubated for 7 days by SRB assay; assay type: functional, cell-based; settings: UWB1289, 168 h
[13] = test system: MDA-MB-436; test: Induction of DNA double strand breaks in human MDA-MB-436 cells assessed as increase in gamma-H2AX level incubated for 48 hrs by western blot analysis; assay type: functional, cell-based; settings: dose 0.1-1 µM, DDE = dose-dependent effect
[14] = Antiproliferative activity against BRCA1-deficient human UWB1289 cells assessed as inhibition of cell proliferation incubated for 7 days by SRB assay; assay type: functional, cell-based; settings: UWB1289, 168 h
[15] = test system: CAPAN-1; test: Induction of DNA double strand breaks in human CAPAN-1 cells assessed as increase in gamma-H2AX level at 10 uM incubated for 48 hrs by immunofluorescence-based laser confocal microscopy; assay type: functional, cell-based
[16] = test system: CAPAN-1; test: Induction of apoptosis in human CAPAN-1 cells assessed as early apoptotic cells at 10 uM incubated for 96 hrs by AnnexinV-FITC/PI staining based flow cytometry (reference value: 5.08%); assay type: functional
[17] = test system: CAPAN-1; test: Induction of apoptosis in human CAPAN-1 cells assessed as late apoptotic cells at 1 uM incubated for 96 hrs by AnnexinV-FITC/PI staining based flow cytometry (reference value: 8.99%); assay type: functional
[18] = test system: CAPAN-1; test: Induction of cell cycle arrest at G2/M phase in human CAPAN-1 cells incubated for 48 hrs by propidium iodide staining based flow cytometry; assay type: functional; settings: dose 1-10 µM, DDE = dose-dependent effect
[19] = test system: CAPAN-1; test: Induction of apoptosis in human CAPAN-1 cells assessed as late apoptotic cells at 5 uM incubated for 96 hrs by AnnexinV-FITC/PI staining based flow cytometry (reference value: 8.99%); assay type: functional

Sequence of Poly [ADP-ribose] polymerase 1 (P09874 whole entry): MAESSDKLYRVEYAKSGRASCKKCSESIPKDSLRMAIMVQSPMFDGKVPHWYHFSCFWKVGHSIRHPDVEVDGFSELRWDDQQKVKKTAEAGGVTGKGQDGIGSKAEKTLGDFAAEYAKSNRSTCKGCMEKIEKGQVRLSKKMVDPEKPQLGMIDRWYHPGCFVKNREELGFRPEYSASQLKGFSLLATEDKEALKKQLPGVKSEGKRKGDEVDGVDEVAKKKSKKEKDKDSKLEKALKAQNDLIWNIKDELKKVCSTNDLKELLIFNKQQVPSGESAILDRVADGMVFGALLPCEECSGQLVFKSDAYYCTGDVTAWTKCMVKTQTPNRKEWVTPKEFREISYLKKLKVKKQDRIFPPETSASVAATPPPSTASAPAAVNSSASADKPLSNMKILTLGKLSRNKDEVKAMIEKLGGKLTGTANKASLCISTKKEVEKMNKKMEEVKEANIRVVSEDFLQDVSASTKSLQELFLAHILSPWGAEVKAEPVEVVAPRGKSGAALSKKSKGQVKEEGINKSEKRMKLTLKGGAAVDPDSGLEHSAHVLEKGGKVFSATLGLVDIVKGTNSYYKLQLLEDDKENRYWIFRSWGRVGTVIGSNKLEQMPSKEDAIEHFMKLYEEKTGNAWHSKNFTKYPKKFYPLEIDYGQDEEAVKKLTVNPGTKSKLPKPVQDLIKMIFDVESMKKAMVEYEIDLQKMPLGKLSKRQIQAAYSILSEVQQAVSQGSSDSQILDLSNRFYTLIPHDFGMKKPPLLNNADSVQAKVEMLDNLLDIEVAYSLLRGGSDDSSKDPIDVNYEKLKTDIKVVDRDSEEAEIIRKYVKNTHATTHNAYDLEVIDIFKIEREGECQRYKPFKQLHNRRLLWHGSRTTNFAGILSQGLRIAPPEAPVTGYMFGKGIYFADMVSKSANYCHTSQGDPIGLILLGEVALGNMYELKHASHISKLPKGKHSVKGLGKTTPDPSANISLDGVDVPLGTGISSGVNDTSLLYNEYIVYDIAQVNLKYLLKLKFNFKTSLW

C[C@H]1CCC[C@]2(C)CC3OC(=O)C(CN4CCN(C(=O)c5cc(Cc6n[nH]c(=O)c7ccccc67)ccc5F)CC4)C3C=C12 (some centres not stated)
IC50 [1]: 0.136 µM

C[C@H]1CCC[C@]2(C)CC3OC(=O)C(CN(C)CCCC(=O)N4CCN(C(=O)c5cc(Cc6n[nH]c(=O)c7ccccc67)ccc5F)CC4)C3C=C12 (some centres not stated)
IC50 [1]: 0.043 µM

C[C@H]1CCC[C@]2(C)CC3OC(=O)C(CNCCCCCCCC(=O)N4CCN(C(=O)c5cc(Cc6n[nH]c(=O)c7ccccc67)ccc5F)CC4)C3C=C12 (some centres not stated)
IC50 [2]: 0.87 µM
Activity [3]: Active
Activity [4]: Dde
Activity [5]: 58.2%
IC50 at 7 days [6]: 11.8 µM
IC50 [7]: 0.19 µM
Activity [8]: 7.21%
IC50 at 7 days [9]: 11.7 µM
Activity [10]: 5.52%
Activity [11]: Active
IC50 [12]: 1.43 µM
Activity [13]: Dde
IC50 [1]: 0.00299 µM
IC50 [14]: 0.27 µM
Activity [15]: Active
Activity [16]: 35.4%
Activity [17]: 14.4%
Activity [18]: Dde
Activity [19]: 13.9%

C=C1C(=O)OC2C[C@@]3(C)CCC=C(COC(=O)CCN(C)C(=O)c4cc(Cc5n[nH]c(=O)c6ccccc56)ccc4F)C3=CC12 (some centres not stated)
IC50 [2]: 1.28 µM
IC50 [7]: 2.19 µM
IC50 [12]: 1.21 µM
IC50 [1]: 0.00218 µM
IC50 [14]: 0.9 µM

C=C1C(=O)OC2C[C@@]3(C)CCC=C(COC(=O)C4CN(C(=O)c5cc(Cc6n[nH]c(=O)c7ccccc67)ccc5F)C4)C3=CC12 (some centres not stated)
IC50 [1]: 0.279 µM

C[C@H]1CCC[C@]2(C)CC3OC(=O)C(CNCCCC(=O)N4CCN(C(=O)c5cc(Cc6n[nH]c(=O)c7ccccc67)ccc5F)CC4)C3C=C12 (some centres not stated)
IC50 [2]: 0.99 µM
IC50 [7]: 0.2 µM
IC50 [12]: 2.25 µM
IC50 [1]: 0.00833 µM
IC50 [14]: 1.12 µM

C=C1C(=O)OC2C[C@@]3(C)CCC=C(COC(=O)CC4CCCN(C(=O)c5cc(Cc6n[nH]c(=O)c7ccccc67)ccc5F)C4)C3=CC12 (some centres not stated)
IC50 [1]: 0.0652 µM

C[C@H]1CCC[C@]2(C)CC3OC(=O)C(CN(C)CCC(=O)N4CCN(C(=O)c5cc(Cc6n[nH]c(=O)c7ccccc67)ccc5F)CC4)C3C=C12 (some centres not stated)
IC50 [1]: 0.0439 µM

C=C1C(=O)OC2C[C@@]3(C)CCC=C(CN4CCN(C(=O)c5cc(Cc6n[nH]c(=O)c7ccccc67)ccc5F)CC4)C3=CC12 (some centres not stated)
IC50 [1]: 0.17 µM

C[C@H]1CCC[C@]2(C)CC3OC(=O)C(CNCCOCCOCCOCC(=O)N4CCN(C(=O)c5cc(Cc6n[nH]c(=O)c7ccccc67)ccc5F)CC4)C3C=C12 (some centres not stated)
IC50 [1]: 0.0734 µM

C=C1C(=O)OC2C[C@@]3(C)CCC=C(COC(=O)CC4CCN(C(=O)c5cc(Cc6n[nH]c(=O)c7ccccc67)ccc5F)CC4)C3=CC12 (some centres not stated)
IC50 [1]: 0.0699 µM

C[C@H]1CCC[C@]2(C)CC3OC(=O)C(CNOCC(=O)N4CCN(C(=O)c5cc(Cc6n[nH]c(=O)c7ccccc67)ccc5F)CC4)C3C=C12 (some centres not stated)
IC50 [1]: 0.0197 µM

C=C1C(=O)OC2C[C@@]3(C)CCC=C(COC(=O)CCC4CCN(C(=O)c5cc(Cc6n[nH]c(=O)c7ccccc67)ccc5F)CC4)C3=CC12 (some centres not stated)
IC50 [1]: 0.0792 µM

C[C@]12CCC=C(CO)C1=CC1C(C2)OC(=O)C1CN1CCN(C(=O)c2cc(Cc3n[nH]c(=O)c4ccccc34)ccc2F)CC1 (some centres not stated)
IC50 [1]: 0.0949 µM

O=C(c1cc(Cc2n[nH]c(=O)c3ccccc23)ccc1F)N1CCN(C(=O)C2CC2)CC1 [OLAPARIB]
IC50 [2]: 0.53 µM
Activity [4]: Dde
Activity [5]: 19%
IC50 [7]: 0.1 µM
Activity [8]: 5.74%
Activity [10]: 4.92%
IC50 [12]: 4.65 µM
Activity [13]: Dde
IC50 [14]: 0.66 µM
Activity [15]: Active
Activity [16]: 9.82%
Activity [17]: 10.1%
Activity [19]: 12.9%

C=C1C(=O)OC2C[C@@]3(C)CCC=C(COC(=O)c4cc(Cc5n[nH]c(=O)c6ccccc56)ccc4F)C3=CC12 (some centres not stated)
IC50 [1]: 2.6 µM

C[C@H]1CCC[C@]2(C)CC3OC(=O)C(CN(C)CC(=O)N4CCN(C(=O)c5cc(Cc6n[nH]c(=O)c7ccccc67)ccc5F)CC4)C3C=C12 (some centres not stated)
IC50 [1]: 0.0203 µM

C[C@]12CCC=C(CO)C1=CC1C(C2)OC(=O)C1CNCCOCCOCC(=O)N1CCN(C(=O)c2cc(Cc3n[nH]c(=O)c4ccccc34)ccc2F)CC1 (some centres not stated)
IC50 [2]: 0.75 µM
Activity [3]: Active
Activity [4]: Dde
Activity [5]: 33.5%
IC50 at 7 days [6]: 12 µM
IC50 [7]: 0.19 µM
Activity [8]: 9.68%
IC50 at 7 days [9]: 10.1 µM
Activity [10]: 6.64%
Activity [11]: Active
IC50 [12]: 2.57 µM
Activity [13]: Dde
IC50 [1]: 0.00591 µM
IC50 [14]: 0.41 µM
Activity [15]: Active
Activity [16]: 12.5%
Activity [17]: 12.6%
Activity [18]: Dde
Activity [19]: 16.5%

C[C@H]1CCC[C@]2(C)CC3OC(=O)C(CNCC(=O)N4CCN(C(=O)c5cc(Cc6n[nH]c(=O)c7ccccc67)ccc5F)CC4)C3C=C12 (some centres not stated)
IC50 [1]: 0.0255 µM

C=C1C(=O)OC2C[C@@]3(C)CCC=C(COC(=O)CCCC4CCN(C(=O)c5cc(Cc6n[nH]c(=O)c7ccccc67)ccc5F)CC4)C3=CC12 (some centres not stated)
IC50 [1]: 0.129 µM

C[C@]12CCC=C(C=O)C1=CC1C(C2)OC(=O)C1CNCCOCCOCC(=O)N1CCN(C(=O)c2cc(Cc3n[nH]c(=O)c4ccccc34)ccc2F)CC1 (some centres not stated)
IC50 [1]: 0.0884 µM

C[C@]12CCC=C(CO)C1=CC1C(C2)OC(=O)C1CNCCCCCCCC(=O)N1CCN(C(=O)c2cc(Cc3n[nH]c(=O)c4ccccc34)ccc2F)CC1 (some centres not stated)
IC50 [1]: 0.422 µM

C[C@H]1CCC[C@]2(C)CC3OC(=O)C(CNCCC(=O)N4CCN(C(=O)c5cc(Cc6n[nH]c(=O)c7ccccc67)ccc5F)CC4)C3C=C12 (some centres not stated)
IC50 [1]: 0.0155 µM

C=C1C(=O)OC2C[C@@]3(C)CCC=C(COC(=O)COCCOCCNC(=O)c4cc(Cc5n[nH]c(=O)c6ccccc56)ccc4F)C3=CC12 (some centres not stated)
IC50 [1]: 0.0386 µM

C=C1C(=O)O[C@@H]2C[C@@]3(C)CCC[C@H](C)C3=C[C@H]12 [HELENINE]
IC50 [1]: > 10 µM

C=C1C(=O)OC2C[C@@]3(C)CCC=C(COC(=O)CCNC(=O)c4cc(Cc5n[nH]c(=O)c6ccccc56)ccc4F)C3=CC12 (some centres not stated)
IC50 [1]: 0.134 µM
